# Where a name gives a salt, the structure may show the parent alone.
row,melting point,SMILES
1,179 to 181 °C,"Nc1cc(C(c2c(F)cccc2F)S(=O)(=O)c2ccc(Cl)cc2)c(Cl)cn1 (stereo not drawn) [Example 296, 5-Chloro-4-[(4-chlorophenylsulfonyl)(2,6-difluorophenyl)methyl]pyridin-2-ylamine]"
2,70 to 73 °C,"Fc1ccc(F)c(C(Sc2ccc(Cl)cc2)c2ccc(C3OCCO3)cn2)c1 (stereo not drawn) [Example 41, 2-[(4-Chlorophenylthio)-(2,5-difluorophenyl)methyl]-5-(1,3-dioxolan-2-yl)pyridine]"
3,204 to 206 °C,"Nc1cc(C(c2cc(F)ccc2F)S(=O)(=O)c2ccc(Cl)cc2)c(Br)cn1 (stereo not drawn) [Example 232, [5-Bromo-4-[(4-chlorophenylsulfonyl)(2,5-difluorophenyl)methyl]pyridin-2-yl]amine]"
4,113 to 115 °C,"O=S(=O)(c1ccc(Cl)cc1)C(c1cc(F)ccc1F)c1cc(NCCOCCO)ncc1Cl (stereo not drawn) [Example 183, 2-[2-[5-Chloro-4-[(4-chlorophenylsulfonyl)(2,5-difluorophenyl)methyl]pyridin-2-ylamino]ethoxy]ethanol]"
5,116 to 117 °C,"Cc1ccnc(C(c2cc(F)ccc2F)S(=O)(=O)c2ccc(Cl)cc2)c1 (stereo not drawn) [Example 16, 2-[[(4-Chlorophenyl)sulfonyl]-(2,5-difluorophenyl)methyl]-4-methylpyridine]"
6,155 to 158 °C,"O=S(=O)(CCO)Nc1cc(C(c2cc(F)ccc2F)S(=O)(=O)c2ccc(Cl)cc2)c(Cl)cn1 (stereo not drawn) [Example 284, N-[5-Chloro-4-[(4-chlorophenylsulfonyl)(2,5-difluorophenyl)methyl]pyridin-2-yl]-2-hydroxyethanesulfonamide]"
7,119 to 120 °C,"C=CCOc1cccnc1C(c1cc(F)ccc1F)S(=O)(=O)c1ccc(Cl)cc1 (stereo not drawn) [Example 18, 3-Allyloxy-2-[[(4-chlorophenyl)sulfonyl]-(2,5-difluorophenyl)methyl]pyridine]"
8,164 to 166 °C,"NCCNC(=S)c1ccc(C(c2cc(F)ccc2F)S(=O)(=O)c2ccc(Cl)cc2)nc1 (stereo not drawn) (as salt: hydrochloride) [Example 142, N-(2-Aminoethyl)-6-[(4-chlorophenylsulfonyl)(2,5-difluorophenyl)methyl]thionicotinamide]"
9,183 to 184 °C,"O=S(=O)(c1ccc(Cl)cc1)C(c1ccc[n+]([O-])c1)c1cc(F)ccc1F (stereo not drawn) [Example 51, 3-[(4-Chlorophenylsulfonyl)-(2,5-difluorophenyl)methyl]pyridine-N-oxide]"
10,176 to 177 °C,"CN1CCC(C(c2ccncc2)S(=O)(=O)c2ccc(Cl)cc2)CC1 (stereo not drawn) [Example 5, 4-[(4-Chlorophenylsulfonyl)(1-methylpiperidin-4-yl)methyl]pyridine]"
11,158 to 159 °C,"COc1ccc(CNc2cc(C(c3cc(F)ccc3F)S(=O)(=O)c3ccc(F)cc3)c(Cl)cn2)cc1OC (stereo not drawn) [Example 214, [5-Chloro-4-[(2,5-difluorophenyl)-(4-fluorophenylsulfonyl)methyl]pyridin-2-yl](3,4-dimethoxybenzyl)amine]"
12,214 to 217 °C,"Cc1cnc(NS(C)(=O)=O)cc1C(c1cc(F)ccc1F)S(=O)(=O)c1ccc(Cl)cc1 (stereo not drawn) [Example 212, N-[4-[(4-Chlorophenylsulfonyl)(2,5-difluorophenyl)methyl]-5-methylpyridin-2-yl]methanesulfonamide]"
13,172 to 173 °C,"O=S(=O)(c1ccc(Cl)cc1)C(c1cc(F)ccc1F)c1cc(CO)ncc1Br (stereo not drawn) [Example 228, [5-Bromo-4-[(4-chlorophenylsulfonyl)(2,5-difluorophenyl)methyl]pyridin-2-yl]methanol]"
14,78 to 80 °C,"O=C1CCCN1CCCNc1cc(C(c2cc(F)ccc2F)S(=O)(=O)c2ccc(Cl)cc2)c(Cl)cn1 (stereo not drawn) [Example 169, 1-[3-[[5-Chloro-4-[(4-chlorophenylsulfonyl)-(2,5-difluorophenyl)methyl]pyridin-2-yl]amino]propyl]pyrrolidin-2-one]"
15,243 to 245 °C,"O=C(Nc1nccs1)c1cnc(C(c2cc(F)ccc2F)S(=O)(=O)c2ccc(Cl)cc2)c(F)c1 (stereo not drawn) [Example 128, 6-(4-Chlorophenylsulfonyl)(2,5-difluorophenyl)methyl-5-fluoro-N-thiazol-2-ylnicotinamide]"
16,150 to 151 °C,"COc1ccc(-n2ccnc2C(c2cc(F)ccc2F)S(=O)(=O)c2ccc(Cl)cc2)cc1 (stereo not drawn) [Example 31, 2-[[(4-Chlorophenyl)sulfonyl]-(2,5-difluorophenyl)methyl]-1-(4-methoxyphenyl)-1H-imidazole]"
17,217 to 219 °C,"CS(=O)(=O)Nc1cc(C(c2cc(F)ccc2F)S(=O)(=O)c2ccc(Cl)cc2)c(F)cn1 (stereo not drawn) [Example 204, N-[4-[(4-Chlorophenylsulfonyl)(2,5-difluorophenyl)methyl]-5-fluoropyridin-2-yl]methanesulfonamide]"
18,> 250 °C (dec.),"NCCNC(=O)c1ccc(C(c2cc(F)ccc2F)S(=O)(=O)c2ccc(Cl)cc2)nc1 (stereo not drawn) (as salt: hydrochloride) [Example 139, N-(2-Aminoethyl)-6-[(4-chlorophenylsulfonyl)(2,5-difluorophenyl)methyl]nicotinamide]"
19,193 to 194 °C,"CCOC(=O)C(=O)NCc1ccc(C(c2cc(F)ccc2F)S(=O)(=O)c2ccc(Cl)cc2)nc1 (stereo not drawn) [Example 69, Ethyl 2-[[6-[(4-Chlorophenylsulfonyl)(2,5-difluorophenyl)methyl]pyridin-3-yl]methylamino]-2-oxoacetate]"
20,70 to 72 °C,"Fc1ccc(F)c(C(Sc2ccc(Cl)cc2)c2ccncc2Cl)c1 (stereo not drawn) [Example 53, 3-Chloro-4-[(4-chlorophenylthio)-(2,5-difluorophenyl)methyl]pyridine]"
21,208 to 209 °C,"O=C(O)c1cc(C(c2cc(F)ccc2F)S(=O)(=O)c2ccc(Cl)cc2)c(F)cn1 (stereo not drawn) [Example 201, 4-[(4-Chlorophenylsulfonyl)(2,5-difluorophenyl)methyl]-5-fluoropicolinic acid]"
22,184 to 190 °C,Cl.O=S(=O)(c1ccc(Cl)cc1)C(c1cc(F)ccc1F)C1CCNCC1 (stereo not drawn)
23,157 to 158 °C,"O=S(=O)(c1ccc(F)cc1)C(c1cc(F)ccc1F)c1cc(NCCO)ncc1Cl (stereo not drawn) [Example 179, 2-[[5-Chloro-4-[(2,5-difluorophenyl)-(4-fluorophenylsulfonyl)methyl]pyridin-2-yl]amino]ethanol]"
24,121 to 123 °C,"COC(=O)CCc1ccc(C(c2cc(F)ccc2F)S(=O)(=O)c2ccc(Cl)cc2)nc1 (stereo not drawn) [Example 45, Methyl 3-[6-[(4-chlorophenylsulfonyl)-(2,5-difluorophenyl)methyl]pyridin-3-yl]propionate]"
25,174 to 176 °C,"O=C(O)CCc1cnc(C(c2cc(F)ccc2F)S(=O)(=O)c2ccc(Cl)cc2)c(F)c1 (stereo not drawn) [Example 133, 3-[6-(4-Chlorophenylsulfonyl)(2,5-difluorophenyl)methyl-5-fluoropyridin-3-yl]propionic acid]"
26,176 to 178 °C,"O=S(=O)(c1ccc(Cl)cc1)C(c1cc(F)ccc1F)c1cc(NCCCNc2ncccn2)ncc1Cl (stereo not drawn) [Example 175, N-[5-Chloro-4-[(4-chlorophenylsulfonyl)-(2,5-difluorophenyl)methyl]pyridin-2-yl]-N′-(pyrimidin-2-yl)propane-1,3-diamine]"
27,200 to 201 °C,"O=C(O)c1cccc(C(c2cc(F)ccc2F)S(=O)(=O)c2ccc(Cl)cc2)n1 (stereo not drawn) [Example 146, 6-[(4-Chlorophenylsulfonyl)(2,5-difluorophenyl)methyl]picolinic acid]"

# Source: patent US7932271B2, “Heterocyclic methyl sulfone derivative” (Daiichi Pharmaceutical Co., Ltd., priority 2003, dated 2011)
